Measured values: BindingDB's records for PubMed 10336510 (Virginia Commonwealth University, 1999)

Legend:
[1] = target: Sodium-dependent dopamine transporter (Rattus norvegicus, UniProt P23977)
[2] = target: Sodium-dependent serotonin transporter (Rattus norvegicus, UniProt P31652)
[3] = target: Norepinephrine transporter (Rattus norvegicus, UniProt Q9JIA2)

Chain of Sodium-dependent dopamine transporter (P23977 whole entry): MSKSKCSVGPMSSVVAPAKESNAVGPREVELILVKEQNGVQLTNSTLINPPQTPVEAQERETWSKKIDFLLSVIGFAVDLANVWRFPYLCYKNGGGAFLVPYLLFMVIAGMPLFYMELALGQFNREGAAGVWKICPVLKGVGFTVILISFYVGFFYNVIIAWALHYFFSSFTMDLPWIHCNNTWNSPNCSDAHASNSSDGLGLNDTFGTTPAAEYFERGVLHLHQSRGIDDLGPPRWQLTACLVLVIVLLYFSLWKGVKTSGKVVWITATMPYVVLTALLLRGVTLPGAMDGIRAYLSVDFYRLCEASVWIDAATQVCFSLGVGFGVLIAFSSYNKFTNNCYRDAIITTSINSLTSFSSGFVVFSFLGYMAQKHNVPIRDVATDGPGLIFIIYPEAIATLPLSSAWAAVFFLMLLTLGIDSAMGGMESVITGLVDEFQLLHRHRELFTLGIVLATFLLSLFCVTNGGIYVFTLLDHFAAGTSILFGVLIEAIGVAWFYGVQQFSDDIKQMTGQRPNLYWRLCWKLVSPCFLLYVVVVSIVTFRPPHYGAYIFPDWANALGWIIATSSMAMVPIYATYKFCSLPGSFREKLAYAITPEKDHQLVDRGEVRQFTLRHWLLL
Chain of Sodium-dependent serotonin transporter (P31652 whole entry): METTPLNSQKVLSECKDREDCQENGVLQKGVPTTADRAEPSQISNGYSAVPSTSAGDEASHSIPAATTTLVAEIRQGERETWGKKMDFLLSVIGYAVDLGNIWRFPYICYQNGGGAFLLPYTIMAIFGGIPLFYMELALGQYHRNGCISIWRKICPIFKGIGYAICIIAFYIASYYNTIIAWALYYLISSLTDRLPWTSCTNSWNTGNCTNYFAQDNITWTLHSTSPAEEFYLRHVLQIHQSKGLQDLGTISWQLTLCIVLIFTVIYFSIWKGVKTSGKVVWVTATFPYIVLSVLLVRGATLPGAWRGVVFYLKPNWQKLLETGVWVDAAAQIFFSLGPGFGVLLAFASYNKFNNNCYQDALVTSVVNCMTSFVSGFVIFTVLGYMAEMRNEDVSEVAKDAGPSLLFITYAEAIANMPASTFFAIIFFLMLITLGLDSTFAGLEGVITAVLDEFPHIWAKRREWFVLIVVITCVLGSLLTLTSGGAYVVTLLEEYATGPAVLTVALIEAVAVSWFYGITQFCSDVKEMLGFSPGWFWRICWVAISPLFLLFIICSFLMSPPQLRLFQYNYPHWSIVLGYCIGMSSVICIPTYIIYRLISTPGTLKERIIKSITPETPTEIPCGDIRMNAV

| Structure (SMILES) | Ki [1] [µM] | Ki [2] [µM] | Ki [3] [µM] |
| --- | --- | --- | --- |
| COC(=O)[C@H]1[C@@H](c2ccc(Cl)cc2)C[C@@H]2CC[C@H]1N2C [RTI-31] | 0.00112 | 0.0445 | – |
| COC(=O)[C@H]1[C@@H](c2ccc(Br)cc2)C[C@@H]2CC[C@H]1N2C [RTI-51] | 0.00169 | 0.0106 | – |
| CN1[C@H]2CC[C@@H]1[C@@H](C(=O)N1CCCC1)[C@@H](c1ccc(I)cc1)C2 [RTI-229] | 0.00037 | 1.73 | 0.99 |
| COC(=O)[C@H]1[C@@H](c2ccc(Cl)c(C)c2)C[C@@H]2CC[C@H]1N2C | 0.0008 | 0.0105 | 0.0362 |
| COC(=O)C1C2CC[C@H](C[C@@H]1c1ccc(N)cc1)N2C (stereo partly drawn) [(3S,8R)-3-(4-Amino-phenyl)-8-methyl-8-aza-bicyclo[3.2.1]octane-2-carboxylic acid methyl ester] | 0.0098 | 5.11 | 0.151 |
| CN1C2CC[C@@H]1C[C@H](c1ccc(Cl)cc1)C2C(=O)N1CCCC1 (stereo partly specified) [RTI-147] | 0.00138 | > 10 | 3.95 |
| COC(=O)[C@@H]1C2CCC(C[C@@H]1c1ccc(Cl)c(Cl)c1)N2C (stereo partly drawn) [(2S,3S)-methyl 3-(3,4-dichlorophenyl)-8-methyl-8-aza-bicyclo[3.2.1]octane-2-carboxylate] | 0.00079 | 0.0031 | 0.0179 |
| COC(=O)C1C2CC[C@H](C[C@@H]1c1ccc(C)cc1)N2C (stereo partly specified) [RTI-32] | 0.0017 | – | 0.06 |
| COC(=O)[C@H]1[C@@H](c2ccccc2)C[C@@H]2CC[C@H]1N2C [methyl (1R,2S,3S,5S)-8-methyl-3-phenyl-8-azabicyclo[3.2.1]octane-2-carboxylate] | 0.023 | – | 0.92 |
| CN1[C@H]2CC[C@@H]1[C@@H](C(=O)Oc1ccccc1)[C@@H](c1ccc(Cl)cc1)C2 [RTI-113] | 0.00198 | 2.34 | 2.93 |
| CC(C)OC(=O)[C@@H]1C2CC[C@H](C[C@@H]1c1ccc(I)cc1)N2C | 0.0004 | 0.0668 | 0.285 |
| Cc1ccc([C@H]2C[C@@H]3CC[C@H]([C@H]2C(=O)Oc2ccccc2)N3C)cc1 [RTI-120] | 0.00326 | > 10 | 5.83 |
| CN1[C@H]2CC[C@@H]1[C@@H](C(=O)O)[C@@H](c1ccc(Cl)cc1)C2 [RIT-70] | 2.07 | > 10 | > 10 |
| COC(=O)[C@H]1[C@@H](c2ccc(Cl)cc2)C[C@@H]2CC[C@H]1N2 [RTI-110] | 0.00062 | 0.0041 | 0.00545 |
| CC(C)OC(=O)[C@@H]1C2CC[C@H](C[C@@H]1c1ccc(Cl)cc1)N2C | 0.0014 | 1.4 | 0.778 |
